Common to all, as to test: combination Emax (second highest fraction inhibited in the dose matrix, 72 h); higher = more inhibition; extreme values may be limits of the assay
Assay [1] has as its system BC-1 (B-Cell Non-Hodgkin's Lymphoma). The gist of the method: (§1)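 After 24 hours at 37°C and 5% CO2 in 1536-well plates, cells in DMEM/F12 or RPMI plus 10% FBS received two-drug dose matrices for 72 hours. Viability came from CellTiter-Glo 2.0 luminescence and was scaled as inhibition, anchored at 0 by vehicle wells and at 1 by blank wells. Combination Emax is taken as the second-highest inhibition in the matrix, and Bliss excess as the observed combination effect less EA + EB − EA·EB, with EA and EB the single-agent effects.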

Assay [2] has as its system C2BBe1 (Colorectal Carcinoma). A digest of the protocol: as §1
The subject of another assay is C32 (Melanoma). The gist of the method: as §1
Another assay deals with DK-MG (Glioblastoma). A digest of the protocol: as §1
The subject of another assay is GCIY (Gastric Carcinoma). The gist of the method:
as §1

A further assay concerns HT-144 (Melanoma). The gist of the method:
as §1

Assay [3] deals with HT-3 (Cervical Carcinoma). The gist of the method: as §1
In assay [4] the test system is MDA-MB-175-VII (Breast Carcinoma). A digest of the protocol:
as §1

The subject of assay [5] is NCI-H1048 (Small Cell Lung Carcinoma). A digest of the protocol: as §1
Assay [6] has as its system NCI-H1435 (Non-Small Cell Lung Carcinoma). The gist of the method: as §1
In assay [7] the test system is NCI-H1975 (Lung Adenocarcinoma). A digest of the protocol:
as §1

The test system of assay [8] is NCI-H835 (Other Solid Carcinomas). A digest of the protocol: as §1
The subject of assay [9] is NTERA-2-cl-D1 (Other Solid Carcinomas). A digest of the protocol: as §1
Assay [10] relates to OVKATE (Ovarian Carcinoma). The gist of the method: as §1
Assay [11] relates to SBC-5 (Small Cell Lung Carcinoma). The gist of the method: as §1
Assay [12] has as its system SCC90 (Head and Neck Carcinoma). A digest of the protocol: as §1
In a further assay the test system is SK-MEL-24 (Melanoma). A digest of the protocol:
as §1

The next assay relates to SK-N-DZ (Neuroblastoma). A digest of the protocol:
as §1

For assay [13], the system named is SW1463 (Colorectal Carcinoma). A digest of the protocol: as §1
For assay [14], the system named is TK (B-Cell Non-Hodgkin's Lymphoma). The gist of the method:
as §1

For the compound `COc1cccc(OCCCN)c1-c1cc(Nc2cnc(C#N)cn2)n[nH]1` [Prexasertib] + Cc1cc2ncnn2cc1Nc1ncc2c(n1)n(C1CCOCC1)c(=O)n2C [AZD7648] (first compound max 1 µM, 7x7, partner max 10 µM), the “combination Emax” value was 0.991 in [1]; 0.625 in assay [2]; 0.753 in the assay on C32 (Melanoma); 0.312 in the assay with DK-MG (Glioblastoma); 0.879 in the assay with GCIY (Gastric Carcinoma); 0.72 in the assay on HT-144 (Melanoma). Also, the “combination Emax” value in assay [3] was 0.388; in assay [4], 0.367; in [5], 0.735; in [6], 0.336; in [7], 0.409; in [8] it was 0.36. For the same compound, the “combination Emax” value in assay [9] was 0.345; in assay [10] it was 0.294; in assay [11], 0.901; in assay [12], 0.755; with SK-MEL-24 (Melanoma), 0.61; in the assay on SK-N-DZ (Neuroblastoma) it was 1. The figures for the “combination Emax” value in assay [13] and in assay [14] were 0.704 and 0.872, respectively.
Turning to `COc1cccc(OCCCN)c1-c1cc(Nc2cnc(C#N)cn2)n[nH]1` [Prexasertib] + O=C(c1cc(Cc2n[nH]c(=O)c3ccccc23)ccc1F)N1CCN(C(=O)C2CC2)CC1 [Olaparib] (first compound max 1 µM, 7x7, partner max 10 µM), the “combination Emax” value was 0.986 in [1]; 0.414 in assay [2]; 0.769 in the assay with C32 (Melanoma); 0.224 in the assay with DK-MG (Glioblastoma); 0.837 in the assay with GCIY (Gastric Carcinoma); 0.712 with HT-144 (Melanoma). Further, the “combination Emax” value in assay [3] turned out to be 0.646; in [4], 0.376; in [5], 0.894; in assay [6], 0.345; in [7], 0.299; in [8], 0.256. The “combination Emax” value stood at 0.742 in assay [9]; 0.371 in assay [10]; 0.914 in [11]; 0.679 in assay [12]; 0.607 in the assay on SK-MEL-24 (Melanoma); 0.97 with SK-N-DZ (Neuroblastoma). Also, the “combination Emax” value is 0.601 in [13] and 0.891 in assay [14].
Turning to `CCc1c2c(nc3ccc(O)cc13)-c1cc3c(c(=O)n1C2)COC(=O)[C@]3(O)CC` [SN-38] + CN(C)CCCOc1ccc(-c2ccc3ncc4c(c3c2)n(C2CCOCC2)c(=O)n4C)cn1 [AZD0156] (first compound max 0.3 µM, 7x7, partner max 1 µM), the “combination Emax” value in assay [1] was found to be 0.979; in [2] it was 0.149; in the assay on C32 (Melanoma), 0.688; with DK-MG (Glioblastoma) it was 0.241; in the assay with GCIY (Gastric Carcinoma), 0.8; in the assay with HT-144 (Melanoma) it was 0.753. Also, the “combination Emax” value stood at 0.95 in assay [3]; 0.631 in [4]; 0.968 in assay [5]; 0.202 in assay [6]; 0.514 in [7]; 0.242 in assay [8]. The “combination Emax” value in assay [9] amounted to 0.958; in [10], 0.224; in assay [11] it was 0.864; in assay [12], 0.423; in the assay on SK-MEL-24 (Melanoma) it was 0.825; in the assay on SK-N-DZ (Neuroblastoma), 0.901. The “combination Emax” value in assay [13] came to 0.634; in assay [14], 0.991.
Regarding `Cn1cnc2c(F)c(Nc3ccc(Br)cc3Cl)c(C(=O)NOCCO)cc21` [Selumetinib] + C=CCn1c(=O)c2cnc(Nc3ccc(N4CCN(C)CC4)cc3)nc2n1-c1cccc(C(C)(C)O)n1 [AZD1775] (first compound max 10 µM, partner max 1 µM), the “combination Emax” value in [1] was 0.993; in assay [2], 0.569; in the assay on C32 (Melanoma) it was 0.987; in the assay on DK-MG (Glioblastoma), 0.408; in the assay with GCIY (Gastric Carcinoma), 0.475; in the assay on HT-144 (Melanoma), 0.812. For the same compound, the “combination Emax” value in [3] was 0.195; in assay [4] it was 0.558; in assay [5], 0.862; in [6], 0.209; in assay [7], 0.492; in [8] it was 0.512. Also, the “combination Emax” value worked out at 0.271 in assay [9]; 0.173 in [10]; 0.514 in assay [11]; 0.825 in [12]; 0.68 in the assay with SK-MEL-24 (Melanoma); 0.971 in the assay on SK-N-DZ (Neuroblastoma). For the same compound, the “combination Emax” value in assay [13] is 0.665; in [14], 0.93.
Take `Cn1cnc2c(F)c(Nc3ccc(Br)cc3Cl)c(C(=O)NOCCO)cc21` [Selumetinib] + CC(C)n1c(=O)n(C)c2cnc3cc(F)c(-c4ccc(OCCCN5CCCCC5)nc4)cc3c21 [AZD1390] (first compound max 10 µM, 7x7, partner max 0.3 µM): the “combination Emax” value is 0.328 in assay [1]; 0.351 in assay [2]; 0.948 in the assay with C32 (Melanoma); 0.323 in the assay with DK-MG (Glioblastoma); 0.396 in the assay with GCIY (Gastric Carcinoma); 0.734 in the assay on HT-144 (Melanoma). For the same compound, the “combination Emax” value in assay [3] was determined as 0.105; in assay [4] it was 0.451; in assay [5], 0.101; in assay [6] it was 0.13; in assay [7], 0.342; in assay [8] it was 0.0782. Further, the “combination Emax” value in assay [9] is 0.235; in [10] it was 0.179; in assay [11], 0.0866; in assay [12] it was 0.774; in the assay with SK-MEL-24 (Melanoma) it was 0.495; in the assay on SK-N-DZ (Neuroblastoma) it was 0.239. For the same compound, the “combination Emax” value in assay [13] came out at 0.702; in [14], 0.177.
Turning to `Cn1cnc2c(F)c(Nc3ccc(Br)cc3Cl)c(C(=O)NOCCO)cc21` [Selumetinib] + CCN(CCO)CCCOc1ccc2c(Nc3cc(CC(=O)Nc4cccc(F)c4)[nH]n3)ncnc2c1 [AZD2811] (first compound max 10 µM, 7x7, partner max 1 µM), the “combination Emax” value in assay [1] was 0.655; in assay [2], 0.484; with C32 (Melanoma), 0.999; with DK-MG (Glioblastoma) it was 0.38; in the assay with GCIY (Gastric Carcinoma), 0.371; in the assay with HT-144 (Melanoma), 0.786. The “combination Emax” value is 0.367 in assay [3]; 0.485 in [4]; 0.611 in [5]; 0.106 in [6]; 0.423 in [7]; 0.177 in [8]. Moreover, the “combination Emax” value in [9] was 0.382; in assay [10], 0.176; in [11] it was 0.366; in assay [12], 0.827; with SK-MEL-24 (Melanoma) it was 0.558; in the assay with SK-N-DZ (Neuroblastoma) it was 0.621. Also, the figures for the “combination Emax” value in [13] and in assay [14] were 0.678 and 0.262, respectively.
Regarding `Cn1cnc2c(F)c(Nc3ccc(Br)cc3Cl)c(C(=O)NOCCO)cc21` [Selumetinib] + C[C@@H]1COCCN1C2=NC(=NC(=C2)C3(CC3)[S@](=N)(=O)C)C4=C5C=CNC5=NC=C4 [AZD6738] (first compound max 10 µM, 7x7, partner max 10 µM), the “combination Emax” value in assay [1] turned out to be 0.923; in assay [2] it was 0.569; in the assay on C32 (Melanoma) it was 1; in the assay on DK-MG (Glioblastoma), 0.417; in the assay with GCIY (Gastric Carcinoma), 0.704; in the assay on HT-144 (Melanoma) it was 0.864. Also, the “combination Emax” value in assay [3] worked out at 0.54; in assay [4], 0.432; in assay [5] it was 0.67; in assay [6] it was 0.114; in [7], 0.496; in assay [8], 0.19. The “combination Emax” value was determined as 0.351 in assay [9]; 0.199 in assay [10]; 0.814 in assay [11]; 0.764 in assay [12]; 0.56 in the assay with SK-MEL-24 (Melanoma); 0.986 in the assay with SK-N-DZ (Neuroblastoma). The “combination Emax” value is 0.643 in assay [13] and 0.909 in [14].
